Values quoted from earlier work, collected in patent publication US20220323353A1, “BIODEGRADABLE DRUG-ELUTING EMBOLIC PARTICLES FOR DELIVERY OF THERAPEUTIC AGENTS” (Becton, Dickinson and Company, priority 2019, published 2022).

Test system: hepatocellular carcinoma
Details: administrated via the hepatic artery

COc1cccc2c1C(=O)c1c(O)c3c(c(O)c1C2=O)C[C@@](O)(C(=O)CO)C[C@@H]3O[C@H]1C[C@H](N)[C@H](O)[C@H](C)O1 [doxorubicin]
antitumor activity in hepatocellular carcinoma patients: antitumor effects and partial response
